The values that follow come from publication PMC11062903, “Discovery of potent inhibitors of α-synuclein aggregation using structure-based iterative learning” (Nature Chemical Biology, 2024).

The target of experiment [1] is T1, αS fibrils (Homo sapiens, UniProt P37840).
T1 construct: made in house; host or cells: E. coli BL21 (DE3)
The experiment is described as follows: SPR binding to immobilized αS fibrils. The settings on record: 1:1 kinetic binding model; for kd / kon: error s.e.m.; for kon: read-out: ka. On the procedure: All work was carried out using Biacore T200 at 25 °C. CM5 chips were activated by flowing 0.01 M N-hydroxysuccinimide, 0.4 M […] at a flow rate of 10 µl min^−1 for 7 min over two lanes. Preformed αS or Aβ42 fibrils (derived from the endpoints of low seeded aggregation reactions) at a concentration of 1 µM in sodium acetate (10 mM, pH 4.0) were injected onto a single lane in 60 s bursts at 5 µl min^−1 until a response of 2,000 units was reached. […] Different small molecule concentrations were then flowed over both lanes in a pyramidal arrangement in duplicate with blank subtraction (association time 3 min, dissociation time 10 min). The running buffer was sodium phosphate (20 mM, 1 mM EDTA, variable pH) with 1% DMSO. Fitting was carried out on Biacore T200 Evaluation Software, version 3.2, using a 1:1 binding model with the refractive index set to a constant value of 0 response units.
For orientation: In SPR one partner is held on a chip, and binding of the other changes the refractive index at the surface.

The target of experiment [2] is T2, Aβ42 fibrils (Homo sapiens, UniProt P05067).
T2 construct: The recombinant Aβ42 peptide ([…] […] […] […] IA), here called Aβ42; made in house; host or cells: Escherichia coli BL21 Gold (DE3)
T2 sequence (P05067 671-713): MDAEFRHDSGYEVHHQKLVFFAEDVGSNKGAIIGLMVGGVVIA
As to the kind of experiment: SPR binding to immobilized Aβ42 fibrils. The settings on record: pH 8. How it is done:
(§1) Solutions of monomeric Aβ42 were prepared by dissolving the lyophilized Aβ42 peptide in 6 M guanidinium hydrocholoride (GuHCl). Monomeric forms were purified from potential oligomeric species and salt using a Superdex 75 10/300 GL column (GE Healthcare) at a flow rate of 0.5 ml min^−1, and were eluted in 20 mM sodium phosphate buffer, pH 8 supplemented with 200 µM EDTA and 0.02% NaN3. The center of the peak was collected and the peptide concentration was determined from the absorbance of the integrated peak area using ε280 = 1,490 l mol^−1 cm^−1. The obtained monomer was diluted with buffer to the desired concentration and supplemented with 20 μM ThT from a 2 mM stock. Each sample was then pipetted into multiple wells of a 96-well half-area, low-binding, clear-bottom and polyethylene glycol-coated plate (Corning 3881), 80 µl per well, in the absence and the presence of different molar-equivalents of small molecules (1% DMSO). Assays were initiated by placing the 96-well plate at 37 °C under quiescent conditions in a plate reader (Fluostar Omega, Fluostar Optima or Fluostar Galaxy, BMGLabtech). The ThT fluorescence was measured through the bottom of the plate using a 440 nm excitation filter and a 480 nm emission filter. Fibrils were extracted directly from wells and used on the day for SPR experiments.
All work was carried out using Biacore T200 at 25 °C. […]

Experiment [3] has as its target T3, Aβ42 secondary nucleation (Homo sapiens, UniProt P05067).
T3 construct: The recombinant Aβ42 peptide ([…] […] […] […] IA), here called Aβ42; made in house; host or cells: Escherichia coli BL21 Gold (DE3)
The experiment is described as follows: seeded Aβ42 aggregation kinetics (ThT). It is filed as biochemical. To be noted: 2 μM Aβ42, 40 nM seed, pH 8. How it is done:
as §1

For experiment [4], the target named is T4, αS aggregation (surface-catalyzed secondary nucleation) (Homo sapiens, UniProt P37840).
T4 construct: made in house; host or cells: E. coli BL21 (DE3)
The experiment is described as follows: light seeded αS aggregation chemical kinetics assay (ThT), secondary nucleation. It is filed as biochemical.
Procedure: Secondary nucleation is enabled by adding a small amount of preformed fibrils to a monomeric mixture. Aggregation was tracked using the amyloid binding dye, thioflavin T (ThT).
αS was injected into a Superdex 75 10/300 GL column (GE Healthcare) at a flow rate of 0.5 ml min^−1 and eluted in 20 mM sodium phosphate buffer (pH 4.8) supplemented with 1 mM EDTA. The obtained monomer was diluted in buffer to a desired concentration and supplemented with 50 µM ThT and preformed αS fibril seeds. The molecules (or DMSO alone) were then added at the desired concentration to a final DMSO concentration of 1% (v/v). […] The assay was then initiated by placing the microplate at 37 °C under quiescent conditions in a plate reader (FLUOstar Omega, BMG Labtech). The ThT fluorescence was measured through the bottom of the plate with a 440 nm excitation filter and a 480 nm emission filter.
In the presence of low concentrations of seeds (approximately nanomolar), the fibril mass fraction, M(t), over time was described using a generalized logistic function to the normalized aggregation data[9],[70] M(t)/mtot=1−1/1+a/ce^κt^c where mtot denotes the total concentration of αS monomers. The parameters a and c are defined as a=λ^2/2κ^2 c=2/n2(n2+1). […]

Experiment [5] has as its target T4, αS aggregation (surface-catalyzed secondary nucleation). The arrangement: method as in PMID 36374974. To be noted: cited from earlier work.

Entries after “also recorded” stand apart in the source; their conditions may differ. Where two headings read alike, the source gives them in different places.

T3 sequence (P05067 671-713): as above

Take `O=C1NN(c2ccc(F)cc2)C(=O)/C1=C/c1ccc(-c2ccc(Cl)c(C(=O)O)c2)o1` [I4.05]: in experiment [1] (pH 4.8), the affinity, expressed as Kd, was 68 nM; the kd is given as 1.315 ± 0.003 × 10^−2 s^−1; the kon was determined as 194000 ± 7e+07 M⁻¹ s⁻¹. Also, in experiment [1] (pH 8), the affinity, expressed as Kd, was 13 nM; the kd is on record as 0.781 ± 0.002 × 10^−2 s^−1; the kon was determined as 588000 ± 2.4e+08 M⁻¹ s⁻¹. In addition, the “binding to Aβ42 fibrils” value in experiment [2] was “unable to effectively inhibit Aβ42 secondary nucleation or bind to Aβ42 fibrils; also recorded: nor does it bind effectively to Aβ42 fibrils”. Also, the “effect on seeded aggregation of Aβ42” value in experiment [3] was “unable to effectively inhibit Aβ42 secondary nucleation; also recorded: no effect”. Also, the IC50 in experiment [4] (1/t1/2 fitted to a Hill slope, 10 µM αS, 25 nM seeds, pH 4.8, 37 °C, read-out: KIC50 (concentration at which t1/2 is increased by 50% with respect to the control)) was found to be 520 nM.

Regarding `Cc1c(OCc2nnn[nH]2)ccc2c1oc(=O)c1ccccc12` [molecule 48], the “activity in aggregation assays (docking set)” value in experiment [5] is “active”.

Consider `O=C1NN(c2ccccc2)C(=O)C1=Cc1coc2ccccc2c1=O` [molecule 69], for which the “activity in aggregation assays (docking set)” value in experiment [5] is “active”. Besides, the IC50 in experiment [4] (extrapolated from Hill fit of 1/t1/2, read-out: extrapolated KIC50) is 18200 nM.
